Data: ChEMBL document CHEMBL4308875, “Synthesis, antituberculosis studies and biological evaluation of new quinoline derivatives carrying 1,2,4-oxadiazole moiety” (Bioorg Med Chem Lett, 2019)
≈ marks a conversion by molar mass, not a printed value.

Experiments:
[1] = tested on: Mycobacterium tuberculosis; assay: Antitubercular activity against Mycobacterium tuberculosis H37Rv after 15 days by turbidometric method; format: functional; conditions: 360 h
Enterococcus faecium = assay: Antibacterial activity against Enterococcus faecium ATCC 51559 after 15 days by turbidometric method; format: functional; conditions: ATCC 51559, 360 h
[2] = Metabolic stability in human liver microsomes assessed as compound remaining at 1 uM after 120 mins by LC-MS/MS analysis (reference value: 100%)
[3] = Extrapolated AUC in BALB/c mouse at 30 mg/kg, po; format: ADME, organism-based; conditions: in vivo
[4] = tested on: Mycobacterium tuberculosis; assay: Bacteriostatic activity against Mycobacterium tuberculosis H37Rv assessed as colony forming units at 0.002 to 64 ug/ml measured day 21 post dose by time kill assay (reference value: 0 log10CFU/ml); format: functional
[5] = tested on: Mycobacterium tuberculosis; assay: Bacteriostatic activity against Mycobacterium tuberculosis H37Rv assessed as colony forming units at 0.002 to 64 ug/ml measured day 3 post dose by time kill assay (reference value: 0 log10CFU/ml); format: functional
[6] = Metabolic stability in human liver microsomes assessed as compound remaining at 1 uM after 15 mins in presence of G-6-P, G-6-PDH, MgCl2 and NADP+ by LC-MS/MS analysis (reference value: 100%)
[7] = tested on: Mycobacterium tuberculosis; assay: Bacteriostatic activity against Mycobacterium tuberculosis H37Rv assessed as colony forming units at 0.002 to 64 ug/ml measured day 14 post dose by time kill assay (reference value: 0 log10CFU/ml); format: functional
Escherichia coli = assay: Antibacterial activity against Escherichia coli ATCC 25922 after 15 days by turbidometric method; format: functional; conditions: ATCC 25922, 360 h
[8] = Half life in BALB/c mouse at 30 mg/kg, po; format: ADME, organism-based; conditions: in vivo
Staphylococcus aureus = assay: Antibacterial activity against Staphylococcus aureus ATCC 33591 after 15 days by turbidometric method; format: functional; conditions: ATCC 33591, 360 h
[9] = Tmax in BALB/c mouse at 30 mg/kg, po; format: ADME, organism-based; conditions: in vivo
[10] = Cmax in BALB/c mouse at 30 mg/kg, po; format: ADME, organism-based; parameters: dose 30 mg/kg, route oral; conditions: in vivo
[11] = tested on: Mycobacterium tuberculosis; assay: Bacteriostatic activity against Mycobacterium tuberculosis H37Rv assessed as colony forming units at 0.002 to 64 ug/ml measured day 7 post dose by time kill assay (reference value: 0 log10CFU/ml); format: functional
[12] = Metabolic stability in human liver microsomes assessed as compound remaining at 1 uM after 30 mins in presence of G-6-P, G-6-PDH, MgCl2 and NADP+ by LC-MS/MS analysis (reference value: 100%)
Klebsiella pneumoniae = assay: Antibacterial activity against Klebsiella pneumoniae ATCC 700603 after 15 days by turbidometric method; format: functional; conditions: Klebsiella pneumoniae, 700603, 360 h
HepG2 = assay: Cytotoxicity against human HepG2 cells after 24 hrs by MTT assay; format: cell-based; conditions: HepG2, 24 h
[13] = Metabolic stability in human liver microsomes assessed as compound remaining at 1 uM after 120 mins in presence of G-6-P, G-6-PDH, MgCl2 and NADP+ by LC-MS/MS analysis (reference value: 100%)
Acinetobacter baumannii = assay: Antibacterial activity against Acinetobacter baumannii ATCC 19606 after 15 days by turbidometric method; format: functional; conditions: ATCC 19606 = CIP 70.34 = JCM 6841
[14] = AUClast in BALB/c mouse at 30 mg/kg, po; format: ADME, organism-based; parameters: dose 30 mg/kg, route oral, time 0 - last; conditions: in vivo
[15] = AUC (infinity) in BALB/c mouse at 30 mg/kg, po; format: ADME, organism-based; parameters: dose 30 mg/kg, time infinity, route oral; conditions: in vivo
Pseudomonas aeruginosa = assay: Antibacterial activity against Pseudomonas aeruginosa ATCC 15442 after 15 days by turbidometric method; format: functional; conditions: ATCC 15442, 360 h
[16] = MRTlast in BALB/c mouse at 30 mg/kg, po; format: ADME, organism-based; conditions: in vivo
[17] = Metabolic stability in human liver microsomes assessed as compound remaining at 1 uM after 60 mins in presence of G-6-P, G-6-PDH, MgCl2 and NADP+ by LC-MS/MS analysis (reference value: 100%)

## N#Cc1cccc(-c2nc(CN3CCN(c4ccnc5cc(Cl)ccc45)CC3)no2)c1
[1]
  MIC: 64 µg/mL (≈ 149 µM)

## CC(C)c1ccc(-c2nc(CN3CCN(c4ccnc5cc(-c6cc(F)cc(F)c6)ccc45)CC3)no2)cc1
[1]
  MIC: 32 µg/mL (≈ 60.9 µM)

## CC(C)c1ccc(-c2nc(CN3CCN(c4ccnc5cc(Cl)ccc45)CC3)no2)cc1
Enterococcus faecium
  MIC: > 32 µg/mL
[2]
  remaining at 2 h, 1 µM: 89.2%
[3]
  %AUCextra: 1.17%
[4]
  Emax: 0.9 log10CFU/ml
[5]
  Emax: 0.2 log10CFU/ml
[6]
  remaining at 0.25 h, 1 µM: 82%
[7]
  Emax: 0.9 log10CFU/ml
Escherichia coli
  MIC: > 32 µg/mL
[8]
  half-life: 1.63 h
Staphylococcus aureus
  MIC: > 32 µg/mL
[9]
  Tmax: 1 h
[10]
  Cmax: 2500 ng/mL
[11]
  Emax: 1.1 log10CFU/ml
[12]
  remaining at 0.5 h, 1 µM: 67.2%
Klebsiella pneumoniae
  MIC: > 32 µg/mL
HepG2
  IC50: > 100 µM
[13]
  remaining at 2 h, 1 µM: 39.7%
Acinetobacter baumannii
  MIC: > 32 µg/mL
[14]
  AUC(0-t): 5270 ng·h/mL
[15]
  AUC(0-inf): 5330 ng·h/mL
Pseudomonas aeruginosa
  MIC: > 32 µg/mL
[16]
  MRT last: 1.5 h
[1]
  MIC: 0.5 µg/mL (≈ 1.12 µM)
[17]
  remaining at 1 h, 1 µM: 55.3%

## Cc1cccc(-c2nc(CN3CCN(c4ccnc5cc(-c6ccncc6)ccc45)CC3)no2)c1C
[1]
  MIC: 2 µg/mL (≈ 4.2 µM)

## N#Cc1cccc(-c2nc(CN3CCN(c4ccnc5cc(-c6cc(F)cc(F)c6)ccc45)CC3)no2)c1
[1]
  MIC: > 256 µg/mL

## CC(C)c1ccc(-c2nc(CN3CCN(c4ccnc5cc(-c6ccncc6)ccc45)CC3)no2)cc1
[1]
  MIC: 2 µg/mL (≈ 4.08 µM)

## Cc1cccc(-c2nc(CN3CCN(c4ccnc5cc(-c6cccnc6)ccc45)CC3)no2)c1C
Enterococcus faecium
  MIC: > 32 µg/mL
[2]
  remaining at 2 h, 1 µM: 78%
[3]
  %AUCextra: 0.22%
[6]
  remaining at 0.25 h, 1 µM: 65.1%
Escherichia coli
  MIC: > 32 µg/mL
[8]
  half-life: 0.94 h
Staphylococcus aureus
  MIC: > 32 µg/mL
[9]
  Tmax: 0.5 h
[10]
  Cmax: 6410 ng/mL
[12]
  remaining at 0.5 h, 1 µM: 47.3%
Klebsiella pneumoniae
  MIC: > 32 µg/mL
HepG2
  IC50: > 100 µM
[13]
  remaining at 2 h, 1 µM: 18.1%
Acinetobacter baumannii
  MIC: > 32 µg/mL
[14]
  AUC(0-t): 8290 ng·h/mL
[15]
  AUC(0-inf): 8310 ng·h/mL
Pseudomonas aeruginosa
  MIC: > 32 µg/mL
[16]
  MRT last: 1.34 h
[1]
  MIC: 0.25 µg/mL (≈ 0.525 µM)
[17]
  remaining at 1 h, 1 µM: 31.7%

## COc1cc(OC)cc(-c2nc(CN3CCN(c4ccnc5cc(Cl)ccc45)CC3)no2)c1
[1]
  MIC: 32 µg/mL (≈ 68.7 µM)

## c1cncc(-c2ccc3c(N4CCN(Cc5noc(C6CCCC6)n5)CC4)ccnc3c2)c1
Enterococcus faecium
  MIC: 64 µg/mL (≈ 145 µM)
[2]
  remaining at 2 h, 1 µM: 97.8%
[3]
  %AUCextra: 0.71%
[6]
  remaining at 0.25 h, 1 µM: 60.8%
Escherichia coli
  MIC: 256 µg/mL (≈ 581 µM)
[8]
  half-life: 0.75 h
Staphylococcus aureus
  MIC: 512 µg/mL (≈ 1160 µM)
[9]
  Tmax: 0.5 h
[10]
  Cmax: 9600 ng/mL
[12]
  remaining at 0.5 h, 1 µM: 54.8%
Klebsiella pneumoniae
  MIC: 256 µg/mL (≈ 581 µM)
HepG2
  IC50: > 50 µM
[13]
  remaining at 2 h, 1 µM: 21.9%
Acinetobacter baumannii
  MIC: 512 µg/mL (≈ 1160 µM)
[14]
  AUC(0-t): 20000 ng·h/mL
[15]
  AUC(0-inf): 20200 ng·h/mL
Pseudomonas aeruginosa
  MIC: 512 µg/mL (≈ 1160 µM)
[16]
  MRT last: 1.31 h
[1]
  MIC: 0.25 µg/mL (≈ 0.567 µM)
[17]
  remaining at 1 h, 1 µM: 38%

## Clc1ccc2c(N3CCN(Cc4noc(C5CCCC5)n4)CC3)ccnc2c1
[1]
  MIC: 32 µg/mL (≈ 80.4 µM)

## COc1cc(OC)cc(-c2nc(CN3CCN(c4ccnc5cc(-c6ccncc6)ccc45)CC3)no2)c1
[1]
  MIC: > 128 µg/mL

## CC(C)c1ccc(-c2nc(CN3CCN(c4ccnc5cc(-c6cccnc6)ccc45)CC3)no2)cc1
Enterococcus faecium
  MIC: > 32 µg/mL
[2]
  remaining at 2 h, 1 µM: 76.5%
[3]
  %AUCextra: 0.6%
[6]
  remaining at 0.25 h, 1 µM: 74.1%
Escherichia coli
  MIC: > 32 µg/mL
[8]
  half-life: 1.05 h
Staphylococcus aureus
  MIC: > 32 µg/mL
[9]
  Tmax: 0.5 h
[10]
  Cmax: 7440 ng/mL
[12]
  remaining at 0.5 h, 1 µM: 56.8%
Klebsiella pneumoniae
  MIC: > 32 µg/mL
HepG2
  IC50: > 100 µM
[13]
  remaining at 2 h, 1 µM: 23%
Acinetobacter baumannii
  MIC: > 32 µg/mL
[14]
  AUC(0-t): 11900 ng·h/mL
[15]
  AUC(0-inf): 11900 ng·h/mL
Pseudomonas aeruginosa
  MIC: > 32 µg/mL
[16]
  MRT last: 1.38 h
[1]
  MIC: 0.25 µg/mL (≈ 0.51 µM)
[17]
  remaining at 1 h, 1 µM: 40.1%

## Fc1cc(F)cc(-c2nc(CN3CCN(c4ccnc5cc(Cl)ccc45)CC3)no2)c1
[1]
  MIC: > 128 µg/mL

## c1cc(-c2ccc3c(N4CCN(Cc5noc(C6CCCC6)n5)CC4)ccnc3c2)ccn1
[1]
  MIC: 2 µg/mL (≈ 4.54 µM)

## COc1cc(OC)cc(-c2nc(CN3CCN(c4ccnc5cc(-c6cc(F)cc(F)c6)ccc45)CC3)no2)c1
[1]
  MIC: 256 µg/mL (≈ 471 µM)

## Fc1cc(F)cc(-c2ccc3c(N4CCN(Cc5noc(C6CCCC6)n5)CC4)ccnc3c2)c1
[1]
  MIC: 128 µg/mL (≈ 269 µM)

## Fc1cc(F)cc(-c2nc(CN3CCN(c4ccnc5cc(-c6ccncc6)ccc45)CC3)no2)c1
[1]
  MIC: 16 µg/mL (≈ 33 µM)

## Cc1cccc(-c2nc(CN3CCN(c4ccnc5cc(-c6cc(F)cc(F)c6)ccc45)CC3)no2)c1C
[1]
  MIC: 32 µg/mL (≈ 62.6 µM)

## Fc1cc(F)cc(-c2ccc3c(N4CCN(Cc5noc(-c6cc(F)cc(F)c6)n5)CC4)ccnc3c2)c1
[1]
  MIC: 64 µg/mL (≈ 123 µM)

## N#Cc1cccc(-c2nc(CN3CCN(c4ccnc5cc(-c6ccncc6)ccc45)CC3)no2)c1
[1]
  MIC: 32 µg/mL (≈ 67.6 µM)

## Cc1cccc(-c2nc(CN3CCN(c4ccnc5cc(Cl)ccc45)CC3)no2)c1C
[1]
  MIC: 64 µg/mL (≈ 147 µM)

## COc1ccc(CCN2CCC(Nc3nc4ccccc4n3Cc3ccc(F)cc3)CC2)cc1 [ASTEMIZOLE]
HepG2
  IC50: 7.97 µM

## O=C(O)c1cn(C2CC2)c2cc(N3CCNCC3)c(F)cc2c1=O [CIPROFLOXACIN]
Enterococcus faecium
  MIC: 8 µg/mL (≈ 24.1 µM)
Escherichia coli
  MIC: 0.007 µg/mL (≈ 0.0211 µM)
Staphylococcus aureus
  MIC: < 1 µg/mL
Klebsiella pneumoniae
  MIC: < 1 µg/mL
Acinetobacter baumannii
  MIC: < 1 µg/mL
Pseudomonas aeruginosa
  MIC: < 1 µg/mL

## NNC(=O)c1ccncc1 [ISONIAZID]
[1]
  MIC: 0.015 µg/mL (≈ 0.109 µM)

## CO[C@H]1/C=C/O[C@@]2(C)Oc3c(C)c(O)c4c(O)c(c(/C=N/N5CCN(C)CC5)c(O)c4c3C2=O)NC(=O)/C(C)=C\C=C\[C@H](C)[C@H](O)[C@@H](C)[C@@H](O)[C@@H](C)[C@H](OC(C)=O)[C@@H]1C [RIFAMPIN]
[4]
  Emax: 6.3 log10CFU/ml
[5]
  Emax: 4.2 log10CFU/ml
[7]
  Emax: 6.2 log10CFU/ml
[11]
  Emax: 6.2 log10CFU/ml
[1]
  MIC: 0.03 µg/mL (≈ 0.0365 µM)

## CN[C@H](CC(C)C)C(=O)N[C@H]1C(=O)N[C@@H](CC(N)=O)C(=O)N[C@H]2C(=O)N[C@H]3C(=O)N[C@H](C(=O)N[C@H](C(=O)O)c4cc(O)cc(O)c4-c4cc3ccc4O)[C@H](O)c3ccc(c(Cl)c3)Oc3cc2cc(c3O[C@@H]2O[C@H](CO)[C@@H](O)[C@H](O)[C@H]2O[C@H]2C[C@](C)(N)[C@H](O)[C@H](C)O2)Oc2ccc(cc2Cl)[C@H]1O [VANCOMYCIN]
Enterococcus faecium
  MIC: < 1 µg/mL
Escherichia coli
  MIC: > 512 µg/mL
Klebsiella pneumoniae
  MIC: 512 µg/mL (≈ 353 µM)
Acinetobacter baumannii
  MIC: 256 µg/mL (≈ 177 µM)
Pseudomonas aeruginosa
  MIC: 512 µg/mL (≈ 353 µM)
